Values quoted from earlier work as cited in US20050240051A1, “Dispersing agent or solubilizing agent containing calixarene compound” (Ajinomoto Co., Inc., priority 2002, published 2005).

c12c3c4c5c1c1c6c7c2c2c8c3c3c9c4c4c%10c5c5c1c1c6c6c%11c7c2c2c7c8c3c3c8c9c4c4c9c%10c5c5c1c1c6c6c%11c2c2c7c3c3c8c4c4c9c5c1c1c6c2c3c41 [fullerene]
solubility in hydrocarbon solvents and alcohol solvents: not more than 0.1 mg/ml
solubility in toluene: about 3 mg/ml
solubility in 1-methylnaphthalene (at around normal temperature): about 33 mg/ml
